ChEMBL document CHEMBL5247643, “Discovery and Characterization of BAY-805, a Potent and Selective Inhibitor of Ubiquitin-Specific Protease USP21” (J Med Chem, 2023)
Calls of active or inactive are those of the source. The calls are words filed in the database; no cut-off is given here.

What was measured:
MDA-MB-231 = assay: Antiproliferative activity against human MDA-MB-231 cells assessed as reduction in cell viability up to 30 uM incubated for 72 hrs by CellTiter-Glo luminescent assay; format: functional, cell-based
Jurkat = assay: Antiproliferative activity against human Jurkat cells assessed as reduction in cell viability up to 30 uM incubated for 72 hrs by CellTiter-Glo luminescent assay; format: functional, cell-based
MOLM-13 = assay: Antiproliferative activity against human MOLM-13 cells assessed as reduction in cell viability up to 30 uM incubated for 72 hrs by CellTiter-Glo luminescent assay; format: functional, cell-based
[1] = target: T1, Ubiquitin carboxyl-terminal hydrolase 15 (Homo sapiens) (UniProt Q9Y4E8); assay: Inhibition of human USP15 (1 to 952 residues) expressed in Sf9 cells using ubiquitin rhodamine 110 as substrate assessed as remaining enzyme activity at 10 to 50 uM by fluorometric assay; conditions: dose 10-50 µM
T1 sequence (whole entry): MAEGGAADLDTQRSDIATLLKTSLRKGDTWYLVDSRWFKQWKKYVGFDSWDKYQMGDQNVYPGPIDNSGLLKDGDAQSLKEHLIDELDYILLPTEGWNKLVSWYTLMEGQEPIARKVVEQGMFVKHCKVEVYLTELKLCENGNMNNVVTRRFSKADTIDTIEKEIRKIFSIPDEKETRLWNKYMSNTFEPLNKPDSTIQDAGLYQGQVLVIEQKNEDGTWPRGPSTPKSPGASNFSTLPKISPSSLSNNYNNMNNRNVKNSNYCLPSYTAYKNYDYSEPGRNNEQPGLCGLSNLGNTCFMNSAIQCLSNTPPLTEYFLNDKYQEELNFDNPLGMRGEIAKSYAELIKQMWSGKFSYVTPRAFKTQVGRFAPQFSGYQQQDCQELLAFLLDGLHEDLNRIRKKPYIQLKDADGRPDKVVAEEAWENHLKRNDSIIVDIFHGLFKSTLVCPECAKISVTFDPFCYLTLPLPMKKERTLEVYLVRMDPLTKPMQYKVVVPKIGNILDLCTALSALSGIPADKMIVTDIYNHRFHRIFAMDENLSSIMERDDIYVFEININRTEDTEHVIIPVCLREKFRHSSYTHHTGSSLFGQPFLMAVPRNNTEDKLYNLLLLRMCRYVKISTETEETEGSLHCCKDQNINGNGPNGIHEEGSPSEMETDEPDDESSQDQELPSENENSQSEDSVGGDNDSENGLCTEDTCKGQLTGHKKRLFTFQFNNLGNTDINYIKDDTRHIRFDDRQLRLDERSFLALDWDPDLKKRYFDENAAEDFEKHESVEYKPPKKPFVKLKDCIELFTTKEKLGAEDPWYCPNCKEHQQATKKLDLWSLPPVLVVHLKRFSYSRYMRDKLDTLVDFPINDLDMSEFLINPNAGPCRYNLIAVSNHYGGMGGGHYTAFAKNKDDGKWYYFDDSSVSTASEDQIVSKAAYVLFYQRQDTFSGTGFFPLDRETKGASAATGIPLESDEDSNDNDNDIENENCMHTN

[2] = target: T2, Ubiquitin carboxyl-terminal hydrolase 5 (Homo sapiens) (UniProt P45974); assay: Inhibition of human USP5 (1 to 835 residues) expressed in Sf9 cells using ubiquitin rhodamine 110 as substrate assessed as remaining enzyme activity at 10 to 50 uM by fluorometric assay; conditions: dose 10-50 µM
T2 sequence (whole entry): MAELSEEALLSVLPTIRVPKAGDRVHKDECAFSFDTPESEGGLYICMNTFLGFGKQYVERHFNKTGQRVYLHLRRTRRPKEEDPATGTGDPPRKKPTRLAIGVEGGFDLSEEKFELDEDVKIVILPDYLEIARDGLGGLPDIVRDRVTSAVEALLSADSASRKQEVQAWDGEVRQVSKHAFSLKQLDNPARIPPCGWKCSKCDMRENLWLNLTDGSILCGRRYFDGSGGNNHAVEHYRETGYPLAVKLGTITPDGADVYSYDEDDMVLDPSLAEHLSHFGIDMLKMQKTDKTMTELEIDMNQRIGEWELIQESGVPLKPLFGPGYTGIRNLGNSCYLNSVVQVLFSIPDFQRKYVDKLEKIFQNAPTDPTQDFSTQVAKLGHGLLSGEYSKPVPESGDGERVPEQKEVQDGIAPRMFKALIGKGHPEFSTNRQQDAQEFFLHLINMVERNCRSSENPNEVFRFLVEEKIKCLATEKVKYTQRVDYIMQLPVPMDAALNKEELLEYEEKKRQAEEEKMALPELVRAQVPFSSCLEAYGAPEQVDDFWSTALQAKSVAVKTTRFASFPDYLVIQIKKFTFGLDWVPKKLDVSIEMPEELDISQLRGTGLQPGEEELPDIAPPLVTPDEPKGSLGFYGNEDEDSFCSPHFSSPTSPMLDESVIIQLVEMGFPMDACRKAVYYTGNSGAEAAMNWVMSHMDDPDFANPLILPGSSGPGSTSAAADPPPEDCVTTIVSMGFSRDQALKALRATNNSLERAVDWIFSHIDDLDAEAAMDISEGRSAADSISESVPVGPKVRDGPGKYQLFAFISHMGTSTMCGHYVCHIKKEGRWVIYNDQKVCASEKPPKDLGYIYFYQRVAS

[3] = target: T3, Ubiquitin carboxyl-terminal hydrolase 2 (Homo sapiens) (UniProt O75604); assay: Inhibition of human USP2 (251 to 605 residues) expressed in Escherichia coli BL21 (DE3) using ubiquitin rhodamine 110 as substrate assessed as remaining enzyme activity at 10 to 50 uM by fluorometric assay; conditions: dose 10-50 µM
T3 sequence (whole entry): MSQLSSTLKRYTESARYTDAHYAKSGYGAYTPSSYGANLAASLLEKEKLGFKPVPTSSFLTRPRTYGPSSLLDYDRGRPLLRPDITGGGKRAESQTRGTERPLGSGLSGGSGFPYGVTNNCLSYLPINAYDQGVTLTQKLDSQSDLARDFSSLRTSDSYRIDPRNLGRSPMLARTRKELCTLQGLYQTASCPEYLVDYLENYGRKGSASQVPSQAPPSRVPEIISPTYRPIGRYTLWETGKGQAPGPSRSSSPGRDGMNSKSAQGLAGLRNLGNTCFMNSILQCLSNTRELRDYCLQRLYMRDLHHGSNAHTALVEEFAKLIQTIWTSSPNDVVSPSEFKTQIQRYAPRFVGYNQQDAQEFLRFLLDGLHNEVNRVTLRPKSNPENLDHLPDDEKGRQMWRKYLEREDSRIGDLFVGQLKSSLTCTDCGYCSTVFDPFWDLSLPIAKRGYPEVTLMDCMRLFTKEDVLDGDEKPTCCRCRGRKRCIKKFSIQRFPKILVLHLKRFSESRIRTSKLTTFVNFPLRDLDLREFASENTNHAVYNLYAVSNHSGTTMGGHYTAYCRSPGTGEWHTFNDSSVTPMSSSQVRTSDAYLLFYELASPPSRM

Ataxin-3 (Homo sapiens) = Ataxin-3 (Homo sapiens) (UniProt P54252); assay: Inhibition of human Ataxin-3 (1 to 370 residues) expressed in Escherichia coli BL21 (DE3) using ubiquitin rhodamine 110 as substrate assessed as remaining enzyme activity at 10 to 50 uM by fluorometric assay; conditions: dose 10-50 µM
Ataxin-3 (Homo sapiens), sequence (P54252 whole entry, the tested form may be a part): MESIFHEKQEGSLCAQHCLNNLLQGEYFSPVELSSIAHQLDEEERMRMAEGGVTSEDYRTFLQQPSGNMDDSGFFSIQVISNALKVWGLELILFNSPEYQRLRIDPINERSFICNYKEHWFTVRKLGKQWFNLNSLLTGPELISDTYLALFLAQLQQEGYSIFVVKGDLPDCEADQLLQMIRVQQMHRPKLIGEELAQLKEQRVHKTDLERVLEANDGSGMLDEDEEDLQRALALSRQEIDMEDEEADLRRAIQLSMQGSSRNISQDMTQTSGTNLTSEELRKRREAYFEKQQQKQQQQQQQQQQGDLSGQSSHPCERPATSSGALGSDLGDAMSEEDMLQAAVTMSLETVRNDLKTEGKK

Row | Activity [1] | Activity [2] | Activity [3] | SMILES | Activity (MDA-MB-231) | Activity (Jurkat) | Activity (MOLM-13) | Activity (Ataxin-3 (Homo sapiens))
1 |  |  |  | CC(C)C[C@H](NC(=O)C1(C(F)(F)F)CCCCC1)C(=O)Nc1nnc(Cc2ccc(C#N)cc2)s1 | inactive | inactive | inactive | 
2 | < 50% | < 50% | < 50% | CC(NC(=O)C1CCCC1)C(=O)Nc1nnc(Cc2ccc([N+](=O)[O-])cc2)s1 (racemic) |  |  |  | < 50%
